The data set deals with T2-B * 3501 cells.

Here are results for one sequence from patent US5756666A, “Peptides capable of inducing immune response to HIV” (priority 1993, dated 1998).

Ends that are not written are not given here.

For the sequence TPPLVKLWY [HIV(B35)-16], the “induction of CTL with specific cytotoxic activity” value is on record as “effective for inducing CTLs capable of damaging the synthetic peptide-binding T2-B * 3501 cells”.
